# What was measured:
# [1] = system: colon cancer model Colon-26; details: Colon-26 in BALB/C mice; cyclophosphamide i.p. 3 mg every 6 d x3, with or without (R)-ketorolac 0.1 mg/d x18
# Experimental: (§1) The colon cancer tumor model was established by using adult male BALB/C mice which were subcutaneously inoculated 106 well-growing Colon-26 tumor cells. Starting from the 7th day after tumor inoculation, the two largest diameters of the tumors were measured with vernier calipers twice a week, and the tumor size was expressed as area (square millimeters). After the tumors grew to a certain size, the mice were randomly divided into 4 groups, including a control group (n=5) and 3 treatment groups: the (R)-ketorolac monotherapy group (n=5) was administered by gavage, 0.1 mg/d, for a total of 12 d; the gemcitabine monotherapy group (n=4) was administered intraperitoneally, 2 mg/1 time every 3 d, for a total of 4 times; and the combined therapy group (n=5) adopted the two drugs in combination, and the dosage and frequency of administration were the same as those in the monotherapy group.
# The colon cancer tumor model was established as described in the above.
# After starting the treatment, the tumors were measured twice a week, and a tumor growth curve was made based on average tumor area±SEM.
# [2] = system: aortic dissection and aortic aneurysm; details: oral administration; from CN202111115983.X; cited from earlier work
# [3] = system: colon cancer model Colon-26; assay: (R)-ketorolac combined with gemcitabine on colon cancer model Colon-26, tumor growth curve; assay type: in vivo; details: Colon-26 s.c. in male BALB/C mice; (R)-ketorolac alone by gavage 0.1 mg/d for 12 d
# Experimental: as §1
# After starting the treatment, the tumors were measured twice a week, and a tumor growth curve was made based on average tumor area=SEM.
# [4] = stronger than (R)-ketorolac; cited from earlier work
# [5] = stronger than (R)-ketorolac; cited from earlier work; remark: listed apart in the source
smiles,measurement,setting,value
O=P1(N(CCCl)CCCl)NCCCO1 (stereo not drawn) [cyclophosphamide],cure rate,[1],16.7%
same,mice completely cured,[1],1 out of 6
O=C(c1ccccc1)c1ccc2n1CC[C@H]2C(=O)O [(R)-ketorolac],"effect on aortic dilation, incidence and mortality of aortic dissection and aortic aneurysm",[2],inhibit pathological dilation of the aorta and reduce the incidence and mortality of aortic dissection and aortic aneurysm
same,"effect on colon cancer tumor growth (tumor area growth curve, FIG. 16)",[3],no effect
O=C(c1ccccc1)c1ccc2n1CC[C@@H]2C(=O)O [(S)-ketorolac],analgesic effect relative to (R)-ketorolac,[4],230 times
same,anti-inflammatory effect relative to (R)-ketorolac,[5],60 times

# From US20260035372A1, “METHOD FOR PREPARING (R)-KETOROLAC AND USE THEREOF” (Yinuoke Medicine Science and Technology Co LTD, priority 2022, published 2026)
